Results published in US11472807B2, “Purine derivatives for use as medicament and for use in treating neurodegenerative or neuro-inflammatory disorders” (COMMISSARIAT À L'ENERGIE ATOMIQUE ET AUX ENERGIES …, priority 2017, dated 2022).

Experiments:
p-Tau (Thr212) = assay: p-Tau (Thr212)/total Tau in rat cortical neurons (western-blot); assay type: cell-based; conditions: purine derivative 10 μM (A100), 18 h
Procedure: Cells were lysed in freshly prepared lysis buffer containing in mM: Tris-HCl 50, EDTA 2, EGTA 2, NaCl 100, SDS 0.2%, Triton X-100 1%, proteases inhibitors (Roche Protease Inhibitor Cocktail #04693116001), phosphatases inhibitors (in mM: ammonium molybdate 0.1, β-glycerophosphate 20, NaF 50, Na-pyrophosphate 10, Orthovanadate 1). Protein concentration was measured by the Bradford assay and Laemmli buffer was added to each lysate. Proteins (10 μg per lane) were resolved on 12% Nu-PAGE (LifeTechonoliges #NP0342BOX) using MOPS SDS running buffer and transferred on Immobilon-FL PVDF membrane (Millipore #IPFL00010). Membranes were blocked one hour in TBS Tween20 0.1% BSA 5% at room temperature. Primary antibodies were incubated O/N at 4° C. and detected by Alexa 488 conjugated secondary antibodies (Life Techonologies #A11034 and A11029) diluted 1:1.000 in TBS Tween20 0.05% and 1% BSA. The antibodies specific for pThr212-Tau (Abcam #ab4842), pThr181-Tau (AbCam #ab75679), Tau (Millipore #MAB361), APP (Millipore #07-667) and Actin (Millipore #MAB1501) were diluted in TBS Tween20 0.05% and 1% BSA. Fluorescent signal was visualized with the VersaDoc™ Imaging System (Bio-Rad Laboratories) and quantified with Quantity One® Analysis Software. Grey levels measured for bands of interest were normalized to the corresponding actin bands.
For assessing the protein Tau's phosphorylation, the culture media of rat cortical neurons were replaced by incubation medium containing purine derivatives at 10 μM (A100) or vehicle (0.1% DMSO; Control). After 18 h incubation p-Tau (Thr212) and total Tau were quantified in the cellular extracts by western-blot.

[1] = system: Thr231 phosphorylated Tau; assay: Tau phosphorylation (Thr231) in neuronal primary cultures (MSD); assay type: cell-based, mice; conditions: neurons, 50 μM, 100 μM and 150 μM for 18 h
Procedure: FIG. 7. Plots illustrating the effect of Aftin-5 mediated attenuation of Tau phosphorylation in neuronal primary cultures. Culture media of cortical neurons were replaced by incubation medium containing Aftin-5 at 100 μM (A100) or 150 μM (A150) or vehicle (0.1% DMSO; Control). After 18 h incubation pTau (Thr231) and total Tau were quantified by sandwich immunoassay using the Meso Scale Discovery technology. Different Tau concentrations were expressed versus total proteins concentration. Kruskal-Wallis test and Dunn's Multiple Comparison post-hoc tests were performed and ***p<0.001 indicates significant differences between Aftin-5 and control conditions. Data expressed as means+/−SEM (n=6 wells/condition).
Hippocampi and cortex were dissected in HBSS containing 5 mM glucose (dissection medium). […] Cells were counted and seeded at a density of 22,000 per cm^2 for hippocampal neurons and 10^5 per cm^2 for cortical neurons into 24 wells culture plates (Costar) in plating medium (DMEM medium containing 10% heat-inactivated horse serum (Life Technologies)). […]
Tau and P-Tau in primary rat neurons, organotypic hippocampal slice cultures from wild type (WT) and transgenic Tau mice (3 Tg) after by Aftin-5. Tau was quantified by sandwich immunoassay using the Meso Scale Discovery technologies. […] After a short incubation (5 min) at room temperature, the plate is read on the SECTOR Imager 2400. […]

[2] = system: extracellular Aβ (Aβ1-38, Aβ1-40, Aβ1-42); assay: Extracellular Aβ production in organotypic hippocampal slice cultures (MSD sandwich immunoassay); assay type: cell-based, mice
Procedure: Organotypic hippocampal slice cultures (OHSC) were prepared from newborn (P0-P3) C57B16 or for transgenic 3×Tg-AD mice and were cultured according the interface method (Gogolla et al., 2006). OHSC were kept for 7 days in vitro (div) at 37° C. in a humidified atmosphere (5% CO2) before treatment. Medium was changed every other day.
For acute exposure, neurons were exposed to various concentration of Aftin-5 for 18 hours for acute exposure. […]
All Aβ peptides assays in the samples were performed using V-PLEX Aβ Peptide Panel 1 (4G8) Kit (MSD Technologies_K15199E-1). All plates were read on the SECTOR Imager 2 400 (MSD Technologies). The Aβ peptides assay is based on the principle of the sandwich immunoassay. All assays have followed strictly the protocol kit and all reagents were from Meso Scale Discovery. Briefly, a 96-well plate having 4 spots pre-coated with the corresponding antibodies is provided by MSD Technology (4-spot MULTI-SPOT plates). Before adding the samples, a first saturation step is required. Once the plate is satured and washed, 25 μL of sample (or calibrators) per well are loaded, then 25 μL of the Detection Antibody solution (MSD SULFO-TAG). The plate is incubated for 2 hours. At the end of the incubation, the plate is washed and then a chemical solution (Read buffer 2×) is added allowing electrochemiluminescence. After a short incubation (5 min) at room temperature, the plate is read on the SECTOR Imager 2400. The instrument measures the intensity of the light electrochemiluminescence.

[3] = chronic treatment of OHSC (10 days)

## CC[C@H](CO)Nc1nc(N(C)c2ccccc2)c2ncn(C(C)C)c2n1 [Aftin-5]
p-Tau (Thr212)
  Attenuation of P-Tau/Tau ratio: +(>1 μM) (“+” means that the tested compound shows an anti-inflammatory and/or attenuation of Tau's phosphorylation property with a concentration higher than 1 μM)
[1]
  Thr231 phosphorylated Tau protein: significant dose dependent decrease
[2]; OHSC, Aftin-5 50 μM with BMS (10 μM), 10 days
  modulation of Aβ1-42/Aβ1-40 ratio induced by Aftin-5 in presence of γ-secretase inhibitor BMS: no changes
[2]; [3]
  Aβ1-38: decrease
  Aβ1-40: remained unchanged
  concentration ratio Aβ1-42/Aβ1-40: slight but significant increase
[2]; chronic treatment of OHSC (10 days), P<0.0001
  production of Aβ1-42: increase
